Values quoted from earlier work as cited in patent US20070185067A1, “Ciclesonide and glycopyrronium combination” (Altana Pharma AG, priority 2004, published 2007).

Columns and labels:
[1] = compared with budesonide
[2] = not given; remark: listed apart in the source

CC(C)C(=O)OCC(=O)[C@@]12O[C@H](C3CCCCC3)O[C@@H]1C[C@H]1[C@@H]3CCC4=CC(=O)C=C[C@]4(C)[C@H]3[C@@H](O)C[C@@]12C [Ciclesonide, [11β,16α(R)]-16,17-[(Cyclohexylmethylen)bis(oxy)]-11-hydroxy-21-(2-methyl-1-oxo-prop-oxy)pregna-1,4-dien-3,20-dion]
anti-inflammatory activity relative to budesonide [1]: higher
systemic activity relative to budesonide (compared with budesonide): three times lower than that of budesonide
systemic activity (in vivo): low systemic activity
metabolism by liver oxidases ([2]; liver oxidases): very high
concentration of the drug in the lungs ([2]; lungs): high
absorption after oral administration ([2]; oral administration): only moderately absorbed
plasma half-life ([2]; plasma): low plasma half-life
